From patent publication US7432259B2, “Spiro-piperidine derivatives” (Hoffmann-La Roche Inc., priority 2006, dated 2008) come the findings set out here.

For this experiment, the target named is T1, human V1a receptor (Homo sapiens, UniProt P37288).
T1 construct: expressed in transfected cells; host or cells: HEK293 cells, transiently transfected; cell membranes used
Put plainly: human V1a receptor binding study (3H-Vasopressin SPA, membranes of transfected HEK293 cells). The settings on record: membranes of HEK293 cells transiently transfected with human V1a receptor, Ki by Cheng-Prussoff equation, read-out: pKi(hV1a) (converted). How it is done:
The human V1a receptor was cloned by RT-PCR from total human liver RNA. The coding sequence was subcloned in an expression vector after sequencing to confirm the identity of the amplified sequence. […] Cell membranes were prepared from HEK293 cells transiently transfected with the expression vector and grown in 20 liter fermenters with the following protocol.
50 g of cells were resuspended in 30 ml freshly prepared ice cold Lysis buffer (50 mM HEPES, 1 mM EDTA, 10 mM MgCl2 adjusted to pH=7.4+complete cocktail of protease inhibitor (Roche Diagnostics)). Homogenized with Polytron for 1 min and sonicated on ice for 2×2 minutes at 80%, intensity (Vibracell sonicator). The preparation was centrifuged 20 min at 500 g at 4° C., the pellet was discarded and the supernatant centrifuged 1 hour at 43,000 g at 4° C. (19,000 rpm). The pellet was resuspended in 12.5 ml Lysis buffer+12.5 ml Sucrose 20% and homogenized using a Polytron for 1-2 min. The protein concentration was determined by the Bradford method and aliquots were stored at −80° C. until use. For binding studies 60 mg Yttrium silicate SPA beads (Amersham) were mixed with an aliquot of membrane in binding buffer (50 mM Tris, 120 mM NaCl, 5 mM KCl, 2 mM CaCl2, 10 mM MgCl2) for 15 minutes with mixing. 50 ul of bead/membrane mixture was then added to each well of a 96 well plate, followed by 50 ul of 4 nM 3H-Vasopressin (American Radiolabeled Chemicals). For total binding measurement 100 ul of binding buffer were added to the respective wells, for non-specific binding 100 ul of 8.4 mM cold vasopressin and for compound testing 100 ul of a serial dilution of each compound in 2% DMSO. The plate was incubated 1 h at room temperature, centrifuged 1 min at 1000 g and counted on a Packard Top-Count. Non-specific binding counts were subtracted from each well and data was normalized to the maximum specific binding set at 100%. To calculate an IC 50 the curve was fitted using a non-linear regression model (XLfit) and the Ki was calculated using the Cheng-Prussoff equation.

T1 sequence (P37288 whole entry): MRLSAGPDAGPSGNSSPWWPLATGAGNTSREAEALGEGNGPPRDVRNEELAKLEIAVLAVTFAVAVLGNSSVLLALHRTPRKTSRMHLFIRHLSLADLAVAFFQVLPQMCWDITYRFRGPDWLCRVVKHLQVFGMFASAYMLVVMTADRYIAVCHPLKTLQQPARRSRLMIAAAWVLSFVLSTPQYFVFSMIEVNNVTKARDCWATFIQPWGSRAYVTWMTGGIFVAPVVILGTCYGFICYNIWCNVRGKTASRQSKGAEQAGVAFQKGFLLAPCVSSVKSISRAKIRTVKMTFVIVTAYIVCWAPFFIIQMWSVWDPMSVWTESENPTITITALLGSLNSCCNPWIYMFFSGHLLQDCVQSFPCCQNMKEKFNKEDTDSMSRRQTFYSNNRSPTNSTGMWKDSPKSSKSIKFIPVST

As for `N#CCn1c(C(=O)N2CCC3(CC2)OC(=O)Nc2ccccc23)cc2cc(Cl)ccc21` [Example 16, {5-Chloro-2-[(2-oxo-1,2-dihydro-1′H-spiro[3,1-benzoxazine-4,4′-piperidin]-1′-yl)carbonyl]-1H-indol-1-yl}acetonitrile], the Ki was 10.6 nM. The figure for `N#CCn1c(C(=O)N2CCC3(CC2)CC(=O)Nc2ccc(Br)cc23)cc2cc(Cl)ccc21` [Example 7, {2-[(6′-Bromo-2′-oxo-2′,3′-dihydro-1H,1′H-spiro[piperidine-4,4′-quinolin]-1-yl)carbonyl]-5-chloro-1H-indol-1-yl}acetonitrile] is 47.3 nM; for `N#CCn1c(C(=O)N2CCC3(CC2)OC(=O)Nc2ccccc23)cc2ccccc21` [Example 15, {2-[(2-Oxo-1,2-dihydro-1′H-spiro[3,1-benzoxazine-4,4′-piperidin]-1′-yl)carbonyl]-1H-indol-1-yl}acetonitrile] it is 60.3 nM. Next, `Cn1c(C(=O)N2CCC3(CC2)OC(=O)Nc2ccccc23)cc2cc(Cl)ccc21` [Example 14, 1′-[(5-Chloro-1-methyl-1H-indol-2-yl)carbonyl]spiro[3,1-benzoxazine-4,4′-piperidin]-2(1H)-one]: 29.9 nM.
